Non-standard residues stand in square brackets, D forms with d. No end group written: not given here.
Experiments:
Format in all cases: cell-based, Saccharomyces cerevisiae
[1] = tested on: S. cerevisiae PB1X-9B(pOPT1); assay: Peptide transport assay, accumulation of KLG-[3H]L, PB1X-9B(pOPT1)
Protocol: (§1) To determine if S. cerevisiae transformants harboring pOPT1 could accumulate a radiolabeled tetrapeptide, uptake assays were performed with the radiolabeled substrate KLG-[^3H]L SEQ ID NO:7 with cells grown to log phase in SC-Ura with either ammonium sulfate or 0.1% proline as a nitrogen source. […] This higher initial rate can be explained by overexpression due to high copy number or alternatively by the lack of requisite regulatory elements which may be absent in the heterologous host.
Uptake of KLG-[^3H]L SEQ ID NO:7 was determined using a protocol for uptake of dipeptides as described by Basrai et al. (1995) with a few modifications. S. cerevisiae cultures were grown overnight to exponential phase in SC-Ura medium. Cells were harvested by centrifugation, and resuspended in 2% glucose at a cell density of 2×10^8 cells/ml. Two hundred and fifty microliters of cell suspension were added to an equal volume of an uptake assay reaction mixture and incubated at 30iC. The final concentrations of the components in the uptake assay solution were: glucose (2%, w/v), 10 mM sodium citrate/potassium phosphate buffer (pH 5.0), and KLG-[^3H]L SEQ ID NO:7 (150 μM; 8.5 mCi/mmol). Competition experiments were done in the presence of either 1.5 mM L, KL, KLG, KLLG SEQ ID NO:6, or KLLLG SEQ ID NO:8. At various time points, 90 μl portions were removed and filtered through a membrane. The yeast cells retained on the filter were washed twice with ice-cold distilled water, once with room temperature distilled water, and the residual radioactivity was measured by liquid scintillation. There was no peptide adsorption to the cell surface or sticking to filters since at 0i C the counts were at background level. The uptake results, calculated on the basis of 50% counting efficiency (determined using L-[^3H]lysine as a standard, and the specific activity of the peptide), were expressed as nmol of peptide uptake per minute per mg cell dry weight.

[2] = tested on: S. cerevisiae PB1X-9B(pRS202); assay: Peptide transport assay, accumulation of KLG-[3H]L, PB1X-9B(pRS202); conditions: cells grown in SC with ammonium sulfate; 150 μM substrate
Protocol: as §1
Uptake of KLG-[^3H]L SEQ ID NO:7 was determined using a protocol for uptake of dipeptides as described by Basrai et al. (1995) with a few modifications. S. cerevisiae cultures were grown overnight to exponential phase in SC-Ura medium. Cells were harvested by centrifugation, and resuspended in 2% glucose at a cell density of 2×10^8 cells/ml. […] The yeast cells retained on the filter were washed twice with ice-cold distilled water, once with room temperature distilled water, and the residual radioactivity was measured by liquid scintillation. […] The uptake results, calculated on the basis of 50% counting efficiency (determined using L-[^3H]lysine as a standard, and the specific activity of the peptide), were expressed as nmol of peptide uptake per minute per mg cell dry weight.

S. cerevisiae PB1X-9B = assay: Sensitivity of untransformed S. cerevisiae PB1X-9B to ethionine and ethionine peptides
Protocol: (§2) S. cerevisiae PB1X-9B is sensitive to the toxic amino acid ethionine Eth) but is resistant to ethionine containing di-, tri-, tetra-, and pentapeptides. Disk sensitivity assays was utilized to determine if cells transformed with pOPT1 were sensitive to toxic peptides and whether this sensitivity was dependent upon nitrogen source.
Sensitivity to ethionine, a toxic methionine analog, and ethionine-containing peptides was determined by the method described by Island et al. (1987). Cells were grown overnight to exponential phase of growth in SC, washed, and resuspended at 5×10^6 cells /ml in sterile water. One ml of this cell suspension was added to 3 ml molten Noble agar (0.8% final concentration) and overlayed on 20 ml of the same medium used to prepare the inoculum. A disk (6 mm diameter, Difco) was placed on the plate and 0.38 μmoles of the compounds to be tested were applied to the disks. Zones of inhibition were measured after 24-48 hr incubation at 30 iC. Each test comprised at least three independent assays and the results represented in the Tables are means of the values obtained. Maximum variation between the zones of inhibition measured for each test were ^23 mm. A value of 7 mm for the diameter of zone of inhibition represents a minimal growth inhibition value as the disk diameter was 6 mm. […]

[3] = tested on: S. cerevisiae PB1X-9B(pOPT1); conditions: ammonium sulfate as nitrogen source; 0.38 μmoles per 6 mm disk; 24-48 hr
Protocol: as §2
Sensitivity to ethionine, a toxic methionine analog, and ethionine-containing peptides was determined by the method described by Island et al. (1987). Cells were grown overnight to exponential phase of growth in SC, washed, and resuspended at 5×10^6 cells /ml in sterile water. One ml of this cell suspension was added to 3 ml molten Noble agar (0.8% final concentration) and overlayed on 20 ml of the same medium used to prepare the inoculum. A disk (6 mm diameter, Difco) was placed on the plate and 0.38 μmoles of the compounds to be tested were applied to the disks. Zones of inhibition were measured after 24-48 hr incubation at 30 iC. Each test comprised at least three independent assays and the results represented in the Tables are means of the values obtained. Maximum variation between the zones of inhibition measured for each test were ^23 mm. A value of 7 mm for the diameter of zone of inhibition represents a minimal growth inhibition value as the disk diameter was 6 mm. Photodocumentation of sensitivity assays was done with a Umax Scanner and processed through Adobe Photoshop.

Compound | uptake rate of KLG-[3H]L, no competitor ([1]; SC-Ura with ammonium sulfate, 150 μM substrate, best fit of slope over 12 min) | initial rate of uptake compared to C. albicans SC5314 ([1]; both grown in SC with ammonium sulfate) | uptake rate of radiolabeled tetrapeptide ([1]; cells grown in SC with ammonium sulfate, 150 μM substrate) | initial uptake rate, PB1X-9B(pOPT1) relative to PB1X-9B(pRS202) ([1]; growth media with proline as nitrogen source) [times] | uptake of radiolabeled tetrapeptide [2] | sensitivity / resistance of the strain (S. cerevisiae PB1X-9B) | zone of growth inhibition [3] [mm]
Lys-Leu-Gly-[^3H]Leu (KLG[3H‑Leu]) [KLG-[^3H]L] | 0.24 nm/min/mg of dry weight | higher initial rate of uptake | significant uptake rate | 2.5 | no uptake | – | –
CCSCC[C@H](N)C(=O)O [ethionine, Ethionine] | – | – | – | – | – | sensitive | 33

From patent publication US6441134B1, “Isolated Candida albicans oligopeptide transporter gene” (The University of Tennessee Research Corporation, dated 2002)
